Activity calls are given as the source filed them. No cut-off for these calls is given here.
What was measured:
IGROV-1 [1] = assay: Induction of apoptosis in human IGROV1 cells assessed as late apoptotic cells at 5 uM after 24 hrs by Annexin V/7-AAD staining based flow cytometry (reference value: 4%); format: functional
BXPC-3 [2] = assay: Induction of apoptosis in human BxPC3 cells assessed as total apoptotic death cells at 15 uM after 24 hrs by Annexin V/7-AAD staining based flow cytometry (reference value: 20%); format: functional
Mus musculus [3] = assay: Toxicity in SCID mouse assessed as mortality at 40 mg/kg, ip after 3 to 4 weeks chronic treatment; format: organism-based; design: dose 40 mg/kg, route intraperitoneal; conditions: in vivo
IGROV-1 [4] = assay: Induction of apoptosis in human IGROV1 cells assessed as late apoptotic cells at 15 uM after 24 hrs by Annexin V/7-AAD staining based flow cytometry (reference value: 4%); format: functional
[5] = Displacement of [3H]BTX-B from Na+ channel site 2 after 60 mins by liquid scintillation spectroscopy
IGROV-1 [6] = assay: Cell cycle arrest in human IGROV1 cells assessed as accumulation at < G1 phase at 15 uM after 24 hrs by propidium iodide staining based flow cytometry (reference value: 4%); format: functional
SF-268 = assay: Growth inhibition of human SF268 cells after 48 hrs by SRB assay; format: functional; conditions: SF-268, 48 h
BXPC-3 [7] = assay: Cell cycle arrest in human BxPC3 cells assessed as accumulation at G2 phase at 5 uM after 24 hrs by propidium iodide staining based flow cytometry (reference value: 12%); format: functional
PC-3 [8] = assay: Cell cycle arrest in human PC3 cells assessed as accumulation at S phase at 50 uM after 24 hrs by propidium iodide staining based flow cytometry (reference value: 42%); format: functional
PC-3 [9] = assay: Cell cycle arrest in human PC3 cells assessed as accumulation at S phase at 15 uM after 24 hrs by propidium iodide staining based flow cytometry (reference value: 42%); format: functional
PC-3 [10] = assay: Induction of apoptosis in human PC3 cells assessed as healthy cells at 15 uM after 24 hrs by Annexin V/7-AAD staining based flow cytometry (reference value: 92%); format: functional
[11] = Selectivity ratio of IC50 for human sigma-1 receptor to IC50 for rat sigma-2 receptor
PC-3 [12] = assay: Cell cycle arrest in human PC3 cells assessed as accumulation at S phase at 5 uM after 24 hrs by propidium iodide staining based flow cytometry (reference value: 42%); format: functional
Mus musculus [13] = assay: Analgesic activity against formalin-induced neuropathic pain in paclitaxel treated CD1 mouse assessed as decrease of time spent in paw licking at 100 mg/kg, po administered 14 days post paclitaxel dosing and 1 hr prior formalin challenge measured for 35 to 40 mins post formalin challenge; format: functional, organism-based; design: dose 100 mg/kg
IGROV-1 [14] = assay: Induction of apoptosis in human IGROV1 cells assessed as cleaved caspase-3 containing cells at 5 uM after 24 hrs by FACS analysis (reference value: 4%); format: functional
MCF7 = assay: Cytotoxicity against human MCF7 cells after 48 hrs by trypan blue assay; format: functional, cell-based
IGROV-1 [15] = assay: Induction of apoptosis in human IGROV1 cells assessed as healthy cells at 0.5 uM after 24 hrs by Annexin V/7-AAD staining based flow cytometry (reference value: 86%); format: functional
BXPC-3 [16] = assay: Induction of apoptosis in human BxPC3 cells assessed as healthy cells at 50 uM after 24 hrs by Annexin V/7-AAD staining based flow cytometry (reference value: 77%); format: functional
IGROV-1 [17] = assay: Cell cycle arrest in human IGROV1 cells assessed as accumulation at G1 phase at 0.5 uM after 24 hrs by propidium iodide staining based flow cytometry (reference value: 27%); format: functional
BXPC-3 [18] = assay: Induction of apoptosis in human BxPC3 cells assessed as cleaved caspase-3 containing cells at 0.5 uM after 24 hrs by FACS analysis (reference value: 10%); format: functional
Mus musculus [19] = assay: Toxicity in SCID mouse assessed as weight loss at 40 mg/kg, ip after 3 to 4 weeks chronic treatment; format: organism-based; design: dose 40 mg/kg, route intraperitoneal; conditions: in vivo
IGROV-1 [20] = assay: Cytotoxicity against human IGROV1 cells at 50 uM; format: functional, cell-based
IGROV-1 [21] = assay: Induction of apoptosis in human IGROV1 cells assessed as early apoptotic cells at 50 uM after 24 hrs by Annexin V/7-AAD staining based flow cytometry (reference value: 9%); format: functional
IGROV-1 [22] = assay: Cell cycle arrest in human IGROV1 cells assessed as accumulation at < G1 phase at 0.5 uM after 24 hrs by propidium iodide staining based flow cytometry (reference value: 4%); format: functional
OVCAR-5 = assay: Cytotoxicity against human OVCAR5 cells after 48 hrs by trypan blue assay; format: functional, cell-based
PC-3 [23] = assay: Cell cycle arrest in human PC3 cells assessed as accumulation at < G1 phase at 15 uM after 24 hrs by propidium iodide staining based flow cytometry (reference value: 4%); format: functional
BXPC-3 [24] = assay: Cell cycle arrest in human BxPC3 cells assessed as accumulation at S phase at 0.5 uM after 24 hrs by propidium iodide staining based flow cytometry (reference value: 33%); format: functional
BXPC-3 [25] = assay: Induction of apoptosis in human BxPC3 cells assessed as early apoptotic cells at 0.5 uM after 24 hrs by Annexin V/7-AAD staining based flow cytometry (reference value: 11%); format: functional
IGROV-1 [26] = assay: Cell cycle arrest in human IGROV1 cells assessed as accumulation at G1 phase at 5 uM after 24 hrs by propidium iodide staining based flow cytometry (reference value: 27%); format: functional
H69AR = assay: Growth inhibition of human H69AR cells after 48 hrs by SRB assay; format: functional
IGROV-1 [27] = assay: Cell cycle arrest in human IGROV1 cells assessed as accumulation at G2 phase at 15 uM after 24 hrs by propidium iodide staining based flow cytometry (reference value: 19%); format: functional
[28] = Growth inhibition of human MSC cells after 48 hrs by SRB assay; format: cell-based
SF-295 = assay: Growth inhibition of human SF295 cells after 48 hrs by SRB assay; format: functional; conditions: SF-295, 48 h
IGROV-1 [29] = assay: Cell cycle arrest in human IGROV1 cells assessed as accumulation at S phase at 5 uM after 24 hrs by propidium iodide staining based flow cytometry (reference value: 29%); format: functional
U-251 = assay: Cytotoxicity against human U251 cells after 48 hrs by trypan blue assay; format: functional, cell-based
BXPC-3 [30] = assay: Induction of apoptosis in human BxPC3 cells assessed as cleaved caspase-3 containing cells at 15 uM after 24 hrs by FACS analysis (reference value: 10%); format: functional
IGROV-1 [31] = assay: Cell cycle arrest in human IGROV1 cells assessed as accumulation at >G2 phase at 0.5 uM after 24 hrs by propidium iodide staining based flow cytometry (reference value: 21%); format: functional
PC-3 [32] = assay: Induction of apoptosis in human PC3 cells assessed as late apoptotic cells at 15 uM after 24 hrs by Annexin V/7-AAD staining based flow cytometry (reference value: 2%); format: functional
PC-3 [33] = assay: Cell cycle arrest in human PC3 cells assessed as accumulation at < G1 phase at 50 uM after 24 hrs by propidium iodide staining based flow cytometry (reference value: 4%); format: functional
[34] = read-out: LC50 (the source's name)

Question: For CN1CCN(c2ccc(C(c3ccccc3)C34CC5CC(CC(C5)C3)C4)cc2)CC1 (configuration not stated), which Activity (IGROV-1 [1]) is on record?
Answer: 3%

Question: What about the Activity (BXPC-3 [2]) of the same molecule?
Answer: 28%

Question: What about the Activity (Mus musculus [3]) of the same molecule?
Answer: Non-toxic

Question: What about the Activity (IGROV-1 [4]) of the same molecule?
Answer: 15%

Question: What about the IC50 [5] of the same molecule?
Answer: 1.2 µM

Question: What about the Activity (IGROV-1 [6]) of the same molecule?
Answer: 11%

Question: And the GI50 (SF-268)?
Answer: 18.9 µM

Question: What about the TGI (SF-268) of the same molecule?
Answer: 61.6 µM

Question: And the CC50 (SF-268; [34])?
Answer: 100 µM

Question: And the Activity (BXPC-3 [7])?
Answer: 12%

Question: What about the Activity (PC-3 [8]) of the same molecule?
Answer: 34%

Question: And the Activity (PC-3 [9])?
Answer: 33%

Question: What about the Activity (PC-3 [10]) of the same molecule?
Answer: 89%

Question: And the Ratio IC50 [11]?
Answer: 11.8

Question: And the Activity (PC-3 [12])?
Answer: 42%

Question: And the Activity (Mus musculus [13])?
Answer: Active

Question: And the Activity (IGROV-1 [14])?
Answer: 7%

Question: And the Activity (MCF7)?
Answer: Active

Question: What about the Activity (IGROV-1 [15]) of the same molecule?
Answer: 89%

Question: And the Activity (BXPC-3 [16])?
Answer: 26%

Question: And the Activity (IGROV-1 [17])?
Answer: 26%

Question: What about the Activity (BXPC-3 [18]) of the same molecule?
Answer: 3%

Question: And the Activity (Mus musculus [19])?
Answer: Non-toxic

Question: What about the Activity (IGROV-1 [20]) of the same molecule?
Answer: Active

Question: And the Activity (IGROV-1 [21])?
Answer: 46%

Question: What about the Activity (IGROV-1 [22]) of the same molecule?
Answer: 3%

Question: What about the Activity (OVCAR-5) of the same molecule?
Answer: Active

Question: And the Activity (PC-3 [23])?
Answer: 8%

Question: What about the Activity (BXPC-3 [24]) of the same molecule?
Answer: 34%

Question: What about the Activity (BXPC-3 [25]) of the same molecule?
Answer: 10%

Question: And the Activity (IGROV-1 [26])?
Answer: 25%

Question: What about the GI50 (H69AR) of the same molecule?
Answer: 6.04 µM

Question: What about the TGI (H69AR) of the same molecule?
Answer: 18.4 µM

Question: And the CC50 (H69AR; [34])?
Answer: 90.5 µM

Question: And the Activity (IGROV-1 [27])?
Answer: 21%

Question: What about the GI50 at 48 h ([28]; MSC cells) of the same molecule?
Answer: 16.9 µM

Question: And the LC50 ([28]; msc, 48 h)?
Answer: 91.56 µM

Question: What about the TGI ([28]; msc, 48 h) of the same molecule?
Answer: 54.21 µM

Question: And the GI50 (SF-295)?
Answer: 11 µM

Question: What about the TGI (SF-295) of the same molecule?
Answer: 48.1 µM

Question: What about the CC50 (SF-295; [34]) of the same molecule?
Answer: 85.2 µM

Question: What about the Activity (IGROV-1 [29]) of the same molecule?
Answer: 29%

Question: What about the Activity (U-251) of the same molecule?
Answer: Active

Question: And the Activity (BXPC-3 [30])?
Answer: 11%

Question: And the Activity (IGROV-1 [31])?
Answer: 20%

Question: And the Activity (PC-3 [32])?
Answer: 3%

Question: And the Activity (PC-3 [33])?
Answer: 10%
